How the values were obtained:
Klebsiella pneumoniae = test: Anti-infectious protection of mice against Klebsiella pneumoniae infection; type: in vivo; details: compound iv. 100 μg at -24 h; for % protection: difference of % survivors vs controls; for % survival D + 3 / % survival D + 5 / % survival D + 10: mice
[1] = system: bovine serum albumin (BSA); test: Adjuvant activity in aqueous phase: anti-albumin antibody titer by passive hemagglutination; type: in vivo, Swiss mice; details: S.C., 100 μg with BSA 0.5 mg/animal in isotonic saline; for Titer of antibody 28th day: Swiss mice; for Titer of antibody 34th day / Titer of antibody 36th day: booster 0.1 mg BSA at day 30
Method: In the series of tests of which the results are indicated hereafter, the influence of the active principle according to the invention was assessed as bearing on the anti-albumin antibody rate, particularly under the following conditions. Groups of 8 two-month-old Swiss mice received by subcutaneous injection (SC) or orally (PO) 0.5 mg of antigen constituted by the bovine serum albumin (BSA) with or without the substance tested in an isotonic saline solution. This large dose of antigen, because of its closeness to the limit paralysing dose with respect to the immunising response, elicits but a weak or no immune response in the controls; it therefore constitutes a severe criterion for showing the activity of an adjuvant substance. […] The proportion of antibody was determined by passive hemagglutination by using sheep red blood cells treated with formalin and coated with the antigen studied according to the method described by […] and […]. Immunol., 100, 641-648, 1968). Blood samples were taken 14, 28, 34 and 36 days after the first injection.

SMILES | % protection (Klebsiella pneumoniae; K. pneumoniae im. 1,5 × 10^4) | % survival D + 3 (Klebsiella pneumoniae; K. pneumoniae im. 1,5 × 10^4) | % survival D + 5 (Klebsiella pneumoniae; K. pneumoniae im. 1,5 × 10^4) | % survival D + 10 (Klebsiella pneumoniae; K. pneumoniae im. 1,5 × 10^4) | Titer of antibody 28th day [1] | Titer of antibody 34th day [1] | Titer of antibody 36th day [1] | % protection (Klebsiella pneumoniae; K. pneumoniae im. 2 × 10^4) | % survival D + 3 (Klebsiella pneumoniae; K. pneumoniae im. 2 × 10^4) | % survival D + 5 (Klebsiella pneumoniae; K. pneumoniae im. 2 × 10^4) | % survival D + 10 (Klebsiella pneumoniae; K. pneumoniae im. 2 × 10^4)
CC(=O)N[C@H]1C(O)O[C@H](CO)[C@@H](O)[C@@H]1OCC(=O)N[C@@H](C)C(=O)N[C@H](CCC(=O)O)C(N)=O (stereo partly drawn) [norMur-NAc-L-Ala-D-Glu(OH)-NH2, 2-(2-acetamido-2-deoxy-3-O-D-glucopyranosyl)-acetyl-L-alanyl-D-isoglutamine] | 47% | 78% | 64% | 60% | 25 | 50 | 350 | – | – | – | –
CC(=O)N[C@@H]1[C@@H](O[C@H](C)C(=O)N[C@@H](C)C(=O)N[C@H](CCC(=O)O)C(N)=O)[C@H](O)[C@@H](CO)O[C@H]1O [Mur-NAc-L-Ala-D-Glu(OH)--NH2, Mur-NAc-L-Ala-D-Glu(OH)-NH2, reference compound] | 47% | 83% | 66% | 60% | 25 | 50 | 400 | – | – | – | –
CC(=O)N[C@H]1C(O)O[C@H](COC(=O)CCC(=O)O)[C@@H](O)[C@@H]1O[C@H](C)C(=O)N[C@@H](C)C(=O)N[C@H](CCC(=O)O)C(N)=O (stereo partly drawn) [6-O-succinyl-Mur-NAc-L-Ala-D-Glu, (OH)-NH2] | – | – | – | – | – | – | – | 44% | 100% | 91% | 63%
CC(=O)N[C@H]1C(O)O[C@H](COC(C)=O)[C@@H](OC(C)=O)[C@@H]1O[C@H](C)C(=O)N[C@@H](C)C(=O)N[C@H](CCC(=O)O)C(N)=O (stereo partly drawn) [4,6-di-O-acetyl-Mur-NAc-L-Ala-D-Glu (OH)-NH2] | – | – | – | – | – | – | – | 47% | 97% | 84% | 63%

Source: patent US4323559A, “Compounds derived from N-acetyl-nor-muramyl-L-alanyl-D-isoglutamic acid and other compounds and biologically active compositions containing such compounds” (Agencie Nationale de Valorisation de la Recherche (ANVAR), priority 1973, dated 1982)
